Assay results from the CheMixHub viscosity set.

Assay: xn = mol fraction of the nth substance listed

Brc1ccc(Br)cc1 + CC(C)O
viscosity [mPa·s], 101 kPa
Conditions	298.15 K	303.15 K	308.15 K	313.15 K	318.15 K
x1 = 0.02851	1.945	1.682	1.476	1.307	1.16
x1 = 0.04384	–	1.663	1.47	1.291	1.142

C[N+](=O)[O-] + CC(C)O
viscosity [mPa·s]
Conditions	293.15 K	298.15 K	303.15 K	313.15 K
101 kPa, x1 = 0.1361	–	1.599	–	–
101 kPa, x1 = 0.2622	–	1.267	–	–
101 kPa, x1 = 0.3785	–	1.025	–	–
101 kPa, x1 = 0.4866	–	0.8807	–	–
101 kPa, x1 = 0.5871	–	0.7784	–	–
101 kPa, x1 = 0.6805	–	0.7133	–	–
101 kPa, x1 = 0.7685	–	0.6771	–	–
101 kPa, x1 = 0.8503	–	0.6562	–	–
101 kPa, x1 = 0.9277	–	0.6386	–	–
101.33 kPa, x2 = 0.0502	0.629	–	0.561	0.504
101.33 kPa, x2 = 0.1001	0.624	–	0.552	0.494
101.33 kPa, x2 = 0.1501	0.623	–	0.55	0.49
101.33 kPa, x2 = 0.2003	0.633	–	0.554	0.491
101.33 kPa, x2 = 0.25	0.649	–	0.564	0.496
101.33 kPa, x2 = 0.3	0.672	–	0.579	0.507
101.33 kPa, x2 = 0.35	0.701	–	0.597	0.518
101.33 kPa, x2 = 0.4001	0.731	–	0.616	0.535
101.33 kPa, x2 = 0.4501	0.772	–	0.647	0.552
101.33 kPa, x2 = 0.5	0.817	–	0.679	0.574
101.33 kPa, x2 = 0.55	0.868	–	0.716	0.601
101.33 kPa, x2 = 0.6	0.927	–	0.758	0.639
101.33 kPa, x2 = 0.65	1	–	0.811	0.673
101.33 kPa, x2 = 0.7	1.082	–	0.867	0.71
101.33 kPa, x2 = 0.75	1.182	–	0.937	0.764
101.33 kPa, x2 = 0.8	1.326	–	1.044	0.837
101.33 kPa, x2 = 0.85	1.485	–	1.154	0.917
101.33 kPa, x2 = 0.9	1.698	–	1.302	1.023
101.33 kPa, x2 = 0.95	1.988	–	1.503	1.159

N#C[S-].NC(N)=[NH2+] + CC(N)=O
viscosity [mPa·s], 100 kPa
Conditions	293.15 K	298.13 K	303.15 K	308.15 K	313.15 K	318.15 K	323.15 K
x1 = 0.2	–	–	16.53	13.36	10.98	9.17	7.72
x1 = 0.25	25.56	21.49	17.47	14.41	12.05	10.31	8.95
x1 = 0.3333	25.06	21.05	17.16	14.05	11.66	9.89	8.48

CCCCOC(=O)C(C)O (stereo not drawn) + CC(O)CO
101 kPa
Conditions	viscosity [mPa·s]
293.15 K, x1 = 0.3	17.35
293.15 K, x1 = 0.6996	6.325
303.15 K, x1 = 0.0999	21.45
308.15 K, x1 = 0.3999	6.935
323.15 K, x1 = 0.2	6.665
323.15 K, x1 = 0.4998	3.435

CCCCC(CC)COP(=O)(O)OCC(CC)CCCC (stereo not drawn) + CCC(=O)O
303.15 K, 101 kPa
Conditions	viscosity [mPa·s]
x1 = 0.0668	1.394
x1 = 0.1278	1.986
x1 = 0.2286	3.022
x1 = 0.3182	4.286
x1 = 0.4677	6.968
x1 = 0.5096	7.792
x1 = 0.5879	9.486
x1 = 0.6584	11.01
x1 = 0.7068	12.08
x1 = 0.7594	13.3
x1 = 0.814	14.5
x1 = 0.8783	16.08
x1 = 0.9378	17.59

Cc1cccc(O)c1 + CCC(=O)O
viscosity [mPa·s], 101 kPa
Conditions	x2 = 0.1345	x2 = 0.2591	x2 = 0.3747	x2 = 0.4825	x2 = 0.5831	x2 = 0.6772	x2 = 0.7654	x2 = 0.8483	x2 = 0.9264
298.15 K	9.375	7.067	5.436	4.234	3.319	2.606	2.045	1.606	1.269
308.15 K	5.793	4.756	3.908	3.221	2.608	2.105	1.658	1.316	1.088
318.15 K	4.646	3.935	3.285	2.719	2.255	1.884	1.566	1.277	0.9609

C[N+](=O)[O-] + CCC(C)=O
298.15 K, 101 kPa
Conditions	viscosity [mPa·s]
x1 = 0.1563	0.4237
x1 = 0.2954	0.4466
x1 = 0.418	0.4694
x1 = 0.5281	0.4923
x1 = 0.6264	0.515
x1 = 0.7156	0.5377
x1 = 0.7963	0.5604
x1 = 0.8703	0.5834
x1 = 0.9376	0.6067

C[N+](=O)[O-] + CCC(C)O
viscosity [mPa·s], 101.33 kPa
Conditions	293.15 K	303.15 K	313.15 K
x2 = 0.05	0.631	0.562	0.508
x2 = 0.1	0.639	0.564	0.504
x2 = 0.15	0.65	0.571	0.506
x2 = 0.2002	0.676	0.584	0.515
x2 = 0.25	0.707	0.605	0.528
x2 = 0.3	0.751	0.633	0.546
x2 = 0.35	0.805	0.666	0.574
x2 = 0.4	0.864	0.705	0.595
x2 = 0.45	0.931	0.751	0.625
x2 = 0.5	0.995	0.798	0.659
x2 = 0.5502	1.081	0.854	0.7
x2 = 0.6	1.169	0.916	0.743
x2 = 0.6499	1.275	0.991	0.796
x2 = 0.7	1.4	1.079	0.857
x2 = 0.75	1.547	1.187	0.933
x2 = 0.8	1.742	1.316	1.03
x2 = 0.85	1.995	1.5	1.14
x2 = 0.9001	2.341	1.703	1.283
x2 = 0.95	2.845	2.02	1.477

CCCCC(CC)COP(=O)(O)OCC(CC)CCCC (stereo not drawn) + CCCC(=O)O
303.15 K, 101 kPa
Conditions	viscosity [mPa·s]
x1 = 0.0532	1.784
x1 = 0.1098	2.592
x1 = 0.1892	3.578
x1 = 0.2612	4.602
x1 = 0.3278	5.698
x1 = 0.4066	7.172
x1 = 0.5002	8.886
x1 = 0.6095	11.21
x1 = 0.6884	12.9
x1 = 0.7405	14.01
x1 = 0.8096	15.38
x1 = 0.8811	16.81
x1 = 0.9342	17.79

CCCCC(CC)COP(=O)(O)OCC(CC)CCCC (stereo not drawn) + CCCCCCC
viscosity [mPa·s], 101 kPa
Conditions	x1 = 0.0334	x1 = 0.0721	x1 = 0.1175	x1 = 0.1661	x1 = 0.2371	x1 = 0.3181	x1 = 0.4202	x1 = 0.5541	x1 = 0.7367
303.15 K	0.4827	0.6407	0.866	1.16	1.699	2.494	3.805	6.131	10.6
313.15 K	0.4218	0.5411	0.7073	0.92	1.301	1.851	2.738	4.282	7.192
323.15 K	0.3705	0.4589	0.5793	0.7299	0.9935	1.364	1.95	2.944	4.774

CCCCC(CC)COP(=O)(O)OCC(CC)CCCC (stereo not drawn) + CCCCCCCCO
viscosity [mPa·s], 101 kPa
Conditions	303.15 K	313.15 K	323.15 K
x1 = 0.0433	6.599	4.84	3.531
x1 = 0.0469	6.819	–	–
x1 = 0.073	6.889	–	–
x1 = 0.0919	7.065	5.143	3.719
x1 = 0.1008	7.185	–	–
x1 = 0.1474	7.624	5.504	3.942
x1 = 0.1532	7.958	–	–
x1 = 0.2125	8.316	5.948	4.214
x1 = 0.276	9.907	–	–
x1 = 0.288	9.17	6.493	4.545
x1 = 0.3227	10.59	–	–
x1 = 0.377	10.25	7.177	4.957
x1 = 0.4481	12.38	–	–
x1 = 0.4848	11.66	8.068	5.489
x1 = 0.5519	13.89	–	–
x1 = 0.6176	13.58	9.263	6.195
x1 = 0.6183	14.78	–	–
x1 = 0.7209	16.04	–	–
x1 = 0.7843	16.27	10.92	7.162
x1 = 0.8137	17.09	–	–
x1 = 0.922	18.4	–	–

CCCCCCn1cc[n+](C)c1.F[P-](F)(F)(F)(F)F + CCCCCCn1cc[n+](C)c1.[Cl-]
viscosity [mPa·s], 101 kPa
Conditions	303.15 K	308.15 K	313.15 K	318.15 K	323.15 K
x2 = 0.2	962.7	679	486.2	357.7	–
x2 = 0.4	–	–	854.7	598.9	433.5
x2 = 0.6	–	–	–	–	705.5
